Test results taken from US20080069814A1, “Prevention of Thrombotic Disorders with Active Vitamin D Compounds or Mimics Thereof” (Novacea, Inc., priority 2005, published 2008).

Columns and labels:
[1] = tested on: patients with prostate cancer; test: Phase II clinical trial: Taxotere with or without calcitriol by HDPA, cardiovascular events; assay type: in vivo, human; conditions: 125 patients per arm; calcitriol three 15 μg capsules once a week on the day prior to Taxotere 75 mg/m^2
Description: Two hundred fifty patients with prostate cancer were enrolled at 58 centers in the United States and Canada. All patients in the study received chemotherapy treatment with Taxotere®, a drug in the taxoid class of chemotherapeutic agents. […] Oral dexamethasone is also given along with the Taxotere® to minimize certain side effects (allergic reactions and fluid retention) associated with Taxotere®.
In addition to Taxotere® and dexamethasone, half of the patients were randomly treated with calcitriol and the other half received a placebo. Calcitriol was administered as three capsules of 15 μg each once a week on the day prior to chemotherapy. […] The same Taxotere® doses of 75 mg/m^2 body surface area were administered to the patients receiving Taxotere® alone or Taxotere® in combination with calcitriol.

thrombomodulin (“TM”) = conditions: in vitro, cultured monocytic cells including human peripheral monocytes; cited from earlier work
TF = conditions: in vitro, cultured monocytic cells including human peripheral monocytes; cited from earlier work
[2] = tested on: women with metastatic breast cancer; conditions: cited from earlier work
[3] = tested on: patients suffering from non-small-cell carcinoma of the lung; conditions: in vivo, sc; cited from earlier work
[4] = tested on: venous thromboembolism (VTE); conditions: in vivo; cited from earlier work
[5] = tested on: patients receiving heparin; conditions: cited from earlier work

With `CC(=O)O[C@@]12CO[C@@H]1C[C@H](O)[C@@]1(C)C(=O)[C@H](O)C3=C(C)[C@@H](OC(=O)[C@H](O)[C@@H](NC(=O)OC(C)(C)C)c4ccccc4)C[C@@](O)([C@@H](OC(=O)c4ccccc4)[C@H]21)C3(C)C` [Taxotere®] the “Patients who developed deep vein thrombosis or thrombophlebits” value [1] was “six of 125”, the “Patients who developed myocardial infractions or myocardial ischemia” value [1] was “two of 125” and the “Patients who had a stroke (cerebrovascular events)” value [1] was “two of 125”.
In the case of `C=C1/C(=C\C=C2/CCC[C@]3(C)[C@@H]([C@H](C)CCCC(C)(C)O)CC[C@@H]23)C[C@@H](O)C[C@@H]1O` [calcitriol, 1α,25-dihydroxyvitamin D3], the “Expression of the anticoagulant thrombomodulin” value (thrombomodulin (“TM”)) is given as “up-regulating the expression” and the “Expression of TF” value (TF) is given as “down-regulating the expression”.
In the case of “epoetin alfa: erythropoiesis-stimulating agent, FDA-approved drug EPOGEN”, the “Kaplan-Meier estimated 12-month survival rate” value ([2]; in vivo) is listed as 70%, the “Mortality at 4 months” value ([2]; weekly epoetin alfa for up to a year, interim results) is listed as 8.7% and the “Rate of fatal thrombotic events” value ([2]; weekly epoetin alfa, interim results) is listed as 1.1%. For the same molecule, the “Median survival versus placebo” value [3] was “significant difference in the median survival in favor of patients on the placebo arm”.
For “erythropoietin: erythropoiesis-stimulating agent”, the “Association with VTE” value [4] is listed as “significantly associated with VTE”.
In the case of heparin, the “Patients with immunologic reaction resulting in heparin-induced thrombocytopenia (HIT), average” value [5] is listed as 5%.
